For one data set, the system named is BALB/c mice. Kind of data set: Side effects / lethality after i.v. injection of complexes. It counts as in vivo, mouse. The conditions noted are these: PF14/pDNA at N/P2, i.v., all experiments. The method, then:
For in vivo studies, 20–50 µg of p-CMV-Luc2 (marked as pLuc in the text) per animal was mixed with a peptide at indicated N/P in MQ in a final volume of 100 µl. After 40 minutes of incubation, glucose was added to a final 5% glucose in 200 μl and immediately injected intravenously via the tail vein.
Reporter gene expression levels were evaluated post mortem 24 h after injecting the complexes into the tail vein, using male and female BALB/c mice (8-week-old). Each animal received a single 200 μl i.v. injection of the complexes. The mice were sacrificed using cervical dislocation and tissues were harvested and snap-frozen on dry ice. The whole tissues were homogenized using a Precellys®24-Dual homogenization system (Bertin Technologies, France) and lysed using 1 × Promega lysis buffer (Promega, Sweden). The content of luciferase was analyzed as described previously. Briefly, homogenized tissues were thawed and 500 µl of Promega Reporter lysis 1 × buffer was added. The samples were subsequently vortexed for 15 minutes, subjected to three consecutive freeze-thaw cycles (liquid nitrogen and 37 °C water bath), centrifuged for three minutes at 10,000 x g, 4 °C; the supernatant was removed and saved for later analysis. […] Luciferase was measured with Promega luciferase assay system, in combination with GLOMAX 96 microplate luminometer (Promega, Sweden). […]

The target in data set [1] is T1, proteinase K (Parengyodontium album, UniProt P06873).
T1 construct: purchased Thermo Scientific
The data set is described as follows: Proteinase K treatment of CPP/pDNA complexes. The settings on record: 26 °C. It counts as in vitro ADME. The method, then:
For the proteinase K treatment, 30 μl of pre-formed CPP/pDNA complex solution (0.3, 0.2, 0.1 and 0.05 µg of pDNA per sample) or CPP in MQ was transferred to a black 96-well plate and 90 µl of MQ was added. After a short period of mixing, fluorescent DNA intercalating dye dilution was added (Quant-iT™ PicoGreen®, ThermoFisher Scientific) and incubated for 5 minutes at room temperature. The fluorescence was measured (Synergy MX, BioTek; λex 492 and λem 535) to quantify the initial accessibility of pDNA. Thereafter 10 μl of Proteinase K (Thermo Scientific) was added with the final enzyme concentration ~2.4 U per well. Fluorescence was measured over an indicated period at 26 °C. The readings were normalized against the fluorescence of free pDNA.

Another data set concerns CHO cells. The data set is described as follows: Plasmid delivery (luciferase) assay in cell culture. The settings on record: 24-well plate. It is filed as cell-based. The method, then: If not indicated otherwise, complexes were formed using 0.5 μg of pDNA (pGL3, Promega, Sweden) mixed with a peptide at indicated charge ratio (N/P, nitrogen-to-phosphate ratio) in MQ water in a final volume of 50 μl. N/P was calculated theoretically and accounted for both the positive charges of the peptide (Table 1) and negative charges of the pDNA. Thereafter, complexes were incubated for 40 minutes at room temperature prior to each experiment.
For the plasmid delivery assay, 4 × 10^4 CHO cells were seeded 24 hours prior to each experiment in 24-well plates. Cells were treated with CPP/pDNA complexes at indicated N/P for 4 h in serum containing media, followed by the addition of 1 ml 10% serum-containing medium and incubated for another 20 hours. Thereafter, cells were washed with 1x PBS and lysed using 100 µl 0.1% Triton X-100 in PBS for 15 min at 4 °C. Luciferase activity was measured using Promega’s luciferase assay system according to the manufacturer’s protocol using a GLOMAX™ 96 microplate luminometer (Promega, Sweden) and normalized to the protein content (BioRad Protein Assay, USA).

The next data set has as its system mouse RBC. The data set is described as follows: Hemolysis assay (activity towards cell membranes). It counts as cell-based. The settings on record: 1 h 37 °C, triplicates. The method, then: The ability of the peptides to lyse the red blood cells (RBC) in PBS was used as a measure of membrane activity. To obtain fresh mouse RBC, blood was collected from the saphenous vein using sodium-heparinized (80 iu/ml ± 30%) blood collection capillaries (Marienfeld, Germany) and transferred to heparinized blood collecting tubes (Sarstedt, Germany). To isolate RBCs, the whole blood was centrifuged for 15 minutes at 300 × g, followed by removal of the plasma. The RBCs were then washed three times with 1 × PBS (RBC pelleting with 15 minutes at 300 × g). The resulting RBCs were then resuspended in PBS at 4% (v/v).
For the analysis, 200 μl of RBC suspension was added to 200 μl of peptide solution or peptide/pDNA complexes in 5% glucose (final RBC concentration 2%) and gently vortexed. The peptide/pDNA complexes were prepared using a fixed 1 μg of pDNA and varying amount of the peptide. Following this, samples were incubated for 1 hour at 37 °C with gentle stirring. After incubation, the RBCs were pelleted (15 minutes at 300 × g) and the amount of hemoglobin in the supernatant was assessed by measuring the absorbance at 540 nm using a 96-well microplate reader. The experiments were conducted in triplicates.
100% of hemolysis was defined as the RBCs treated with 0.1% Triton-X100 in PBS and 0% was obtained with cells incubated in 5% glucose solution. % of hemolysis was calculated by the formula: % Hemolysis = [(Asample − Aglucose)/Atriton − Aglucose)] × 100.

For another data set, the system named is lungs. The settings on record: Cy5-labelled pDNA, i.v., 1 h post-injection, confocal microscopy of cryosections. The method, then: The physical accumulation of the complexes were assessed by using Cy5-labeled pDNA (Mirus, USA). Equal amounts of labelled pDNA were administered, regardless of the N/P ratio of the complexes (e.g. N/P4 included 20 μg of labelled pDNA, whereas in case of N/P2, 20 μg of labelled pDNA was mixed with 30 μg of unlabeled pDNA). For the histological evaluation, the lungs were inflated postmortem with 1:1 cryomatrix:PBS (O.C.T embedding matrix, Kaltek, Italy), frozen in 2-methylbutane bath on dry ice. Fresh cryo-sections (10 μm thick) were fixed with ice cold methanol, counterstained with DAPI (AppliChem) and imaged with confocal microscopy (Zeiss LSM710).

Data set [2] addresses T1, proteinase K. It counts as in vitro ADME.
Data set [3] can be described thus: Complex stability in FBS, gel shift assay. The conditions noted are these: 50% FBS, 37 °C, 48 h, serum and/or triton + heparin dissociation.
Method: Then the samples were mixed with the DNA loading dye and electrophoresed exactly as stated above in the Gel shift assay description, using 0.1 µg of pDNA per lane. ZipRuler Express DNA Ladder 2 (ThermoFisher Scientific) was added to each gel.
The stability of the complexes after incubation in FBS, visualized by gel shift assay.

Like-named read-outs stand apart in the source and are kept apart here. Square brackets hold non-standard residues; d marks the D form. Peptide text beside a SMILES is read from it. * marks the point of attachment. Stearoyl = CCCCCCCCCCCCCCCCCC(=O)*; Orn = NCCC[C@H](N)C(=O)O

T1 sequence (P06873 106-384): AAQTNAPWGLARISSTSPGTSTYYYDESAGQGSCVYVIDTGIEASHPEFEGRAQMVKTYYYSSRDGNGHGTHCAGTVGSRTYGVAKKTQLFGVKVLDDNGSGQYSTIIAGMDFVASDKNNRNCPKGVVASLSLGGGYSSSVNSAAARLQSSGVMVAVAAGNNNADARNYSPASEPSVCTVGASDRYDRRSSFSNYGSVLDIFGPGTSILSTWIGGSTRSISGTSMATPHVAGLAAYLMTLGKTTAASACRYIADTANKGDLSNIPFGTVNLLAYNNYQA

Consider `CCCCCCCCCCCCCCCCCC(=O)N[C@@H](C)C(=O)NCC(=O)N[C@@H](Cc1ccc(O)cc1)C(=O)N[C@@H](CC(C)C)C(=O)N[C@@H](CC(C)C)C(=O)NCC(=O)N[C@@H](CCCCN)C(=O)N[C@@H](CC(C)C)C(=O)N[C@@H](CC(C)C)C(=O)N[C@@H](CCCN)C(=O)N[C@@H](CCCN)C(=O)N[C@@H](CC(C)C)C(=O)N[C@@H](C)C(=O)N[C@@H](C)C(=O)N[C@@H](C)C(=O)N[C@@H](C)C(=O)N[C@@H](CC(C)C)C(=O)N[C@@H](CCCN)C(=O)N[C@@H](CCCN)C(=O)N[C@@H](CC(C)C)C(=O)N[C@@H](CC(C)C)C(N)=O` [PF14] (Stearoyl-AGYLLGKLL[Orn][Orn]LAAAAL[Orn][Orn]LL-NH2), for which, in the data set on BALB/c mice, the “lethality / side effects, N/P2” value is on record as “zero lethality”. Further, the “stability of the complexes against proteinase K (in words)” value on proteinase K [1] (CPP/pDNA complexes at N/P2, accessible pDNA over time by intercalating dye) is “less stable particles where DNA was liberated into the solution”. Also, at proteinase K [1] (CPP/pDNA complexes at N/P2 in MQ, proteinase K ~2.4 U per well, accessible pDNA by PicoGreen fluorescence, normalized to free pDNA), the “Proteinase K: t1/2 (min) of the complexed pDNA (95%CI)” value is listed as 108.3 (101.9 ± 118.4) min. In addition, the “usable pDNA dose before toxicity, N/P2” value in the data set with CHO cells (PF14/pDNA N/P2, CHO cells) is recorded as “up to 2 μg”. The “pDNA dose giving maximum transfection before toxicity, N/P4” value in the data set on CHO cells (PF14/pDNA N/P4, CHO cells) is listed as 0.5 μg. In the data set on CHO cells (PF14/pDNA N/P6, CHO cells), the “usable pDNA dose before toxicity, N/P6” value worked out at 0.125 μg. For the same compound, the EC50 in the data set on mouse RBC (naked peptide in 5% glucose, mouse RBC 2% final in PBS, hemoglobin absorbance 540 nm, 100% = 0.1% Triton X-100, read-out: EC50 (μM) of CPP (membrane activity, concentration required to lyse 50% of the cells)) amounted to 0.66 µM; in the data set on mouse RBC (peptide/pDNA complexes, fixed 1 μg pDNA and varying peptide, mouse RBC 2% final, absorbance 540 nm, read-out: EC50 (μM) of CPP/pDNA (membrane activity)), 1.43 µM. The “accumulation of complexes in lungs, N/P2 (in words)” value in the data set with lungs is given as “significantly lower signal”. Moreover, the “accumulation of complexes in lungs, N/P4 (in words)” value with lungs is listed as “considerable amount of the fluorescence was observed in lungs”. Further, the “degradation of naked peptide by proteinase K (in words)” value at proteinase K [2] is “easily degraded”. In addition, in data set [3], the “pDNA migration from complexes after 48 h in serum (in words)” value is on record as “migration of pDNA from some of the complexes could be observed”.

The values are drawn from paper PMC5719086, “Effective in vivo gene delivery with reduced toxicity, achieved by charge and fatty acid -modified cell penetrating peptide” (Scientific Reports, 2017).
